Measured values reported in patent US20100144733A1, “Compounds, compositions and methods comprising heteroaromatic derivatives” (Institute for OneWorld Health, priority 2008, published 2010).
Where two headings read alike, the source gives them in different places. Values belong to the molecule of their own block, whether it stands above or below them.

Target: T1, CFTR (Homo sapiens, UniProt P13569)
T1 construct: endogenous in cells; host or cells: T84 human colonic cells (ECACC)
Experiment: T84 assay (FLIPR membrane potential dye, forskolin/IBMX-stimulated CFTR channel activity)
Format: cell-based
Outline: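 Fluorescence from a membrane potential dye in T84 monolayers (HBSS with 10 mM Hepes) is followed each second for 150 s. Cells are exposed to test compound during the 45 min dye loading, then challenged with forskolin (10 μM) and IBMX (100 μM) to open CFTR. Inhibitors suppress the depolarization-driven fluorescence increase.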

[1] = oxadiazole-containing compounds (a series), average of at least 2 runs unless annotated n = 1, read-out: IC50
[2] = imidazole and triazole-containing compounds (Tables 13, 14, 14′), read-out: IC50 (μM) (T84 assay)

T1 sequence (P13569 whole entry): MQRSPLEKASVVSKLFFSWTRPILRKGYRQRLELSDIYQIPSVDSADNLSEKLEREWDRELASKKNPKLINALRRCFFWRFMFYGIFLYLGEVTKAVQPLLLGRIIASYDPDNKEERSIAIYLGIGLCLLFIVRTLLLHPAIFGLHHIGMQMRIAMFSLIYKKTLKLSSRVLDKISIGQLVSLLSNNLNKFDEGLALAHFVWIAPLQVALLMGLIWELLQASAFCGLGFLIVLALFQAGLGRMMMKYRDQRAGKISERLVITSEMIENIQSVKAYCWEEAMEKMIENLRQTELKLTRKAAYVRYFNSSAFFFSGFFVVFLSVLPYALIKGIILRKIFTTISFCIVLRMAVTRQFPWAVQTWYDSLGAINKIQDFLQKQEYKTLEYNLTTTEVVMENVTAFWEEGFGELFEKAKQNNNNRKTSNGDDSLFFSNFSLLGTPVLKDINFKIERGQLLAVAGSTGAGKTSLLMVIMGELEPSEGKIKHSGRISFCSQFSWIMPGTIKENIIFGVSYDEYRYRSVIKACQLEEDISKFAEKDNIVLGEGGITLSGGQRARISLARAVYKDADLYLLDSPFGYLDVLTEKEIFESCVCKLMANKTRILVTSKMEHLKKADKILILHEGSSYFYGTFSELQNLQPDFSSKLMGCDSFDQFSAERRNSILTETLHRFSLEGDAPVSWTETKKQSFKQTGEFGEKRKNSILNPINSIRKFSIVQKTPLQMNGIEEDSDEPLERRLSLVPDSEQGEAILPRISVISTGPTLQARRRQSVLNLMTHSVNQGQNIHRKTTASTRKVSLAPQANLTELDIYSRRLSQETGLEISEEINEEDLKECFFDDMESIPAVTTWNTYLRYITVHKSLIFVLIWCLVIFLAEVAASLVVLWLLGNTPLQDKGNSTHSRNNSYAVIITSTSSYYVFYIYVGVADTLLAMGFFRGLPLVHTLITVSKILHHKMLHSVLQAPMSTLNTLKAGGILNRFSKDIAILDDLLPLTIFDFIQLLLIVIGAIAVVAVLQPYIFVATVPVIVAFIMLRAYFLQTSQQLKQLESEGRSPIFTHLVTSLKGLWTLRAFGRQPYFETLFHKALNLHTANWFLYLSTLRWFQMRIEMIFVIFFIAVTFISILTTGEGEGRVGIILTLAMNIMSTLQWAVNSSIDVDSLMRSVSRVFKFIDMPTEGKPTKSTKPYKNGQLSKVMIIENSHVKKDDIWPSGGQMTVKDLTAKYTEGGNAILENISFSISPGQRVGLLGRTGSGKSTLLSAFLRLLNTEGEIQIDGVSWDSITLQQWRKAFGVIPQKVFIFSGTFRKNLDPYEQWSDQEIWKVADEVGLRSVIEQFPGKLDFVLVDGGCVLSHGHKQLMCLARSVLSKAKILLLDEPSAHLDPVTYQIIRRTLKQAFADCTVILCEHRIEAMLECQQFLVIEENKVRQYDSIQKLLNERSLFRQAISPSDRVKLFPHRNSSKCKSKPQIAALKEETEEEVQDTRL

SMILES: CN(Cc1cccc(C(F)(F)F)c1)C(=O)c1noc(-c2cc(Cl)c(OCC(=O)O)c(Cl)c2)n1 [106a, 2-(2,6-dichloro-4-(3-(methyl(3-(trifluoromethyl)benzyl)carbamoyl)-1,2,4-oxadiazol-5-yl)phenoxy)acetic acid]
IC50 [1]: 24.6 µM

SMILES: O=C(O)COc1c(Cl)cc(-c2nc(C(=O)NCc3ccc(Oc4ccccc4)cc3)no2)cc1Cl [107a, 2-(2,6-dichloro-4-(3-(4-phenoxybenzylcarbamoyl)-1,2,4-oxadiazol-5-yl)phenoxy)acetic acid]
IC50 [1]: 19.2 µM

SMILES: CCCN(Cc1cccc(C(F)(F)F)c1)C(=O)c1nc(-c2cc(Cl)c(O)c(Cl)c2)no1 [108a, 3-(3,5-dichloro-4-hydroxyphenyl)-N-propyl-N-(3-(trifluoromethyl)benzyl)-1,2,4-oxadiazole-5-carboxamide]
IC50 [1]: 2.79 µM

SMILES: C#CCN(Cc1cccc(C(F)(F)F)c1)C(=O)c1nc(-c2cc(Cl)c(O)c(Cl)c2)no1 [109a, 3-(3,5-dichloro-4-hydroxyphenyl)-N-(prop-2-ynyl)-N-(3-(trifluoromethyl)benzyl)-1,2,4-oxadiazole-5-carboxamide]
IC50 [1]: 5.31 µM

SMILES: CCOCCN(Cc1cccc(C(F)(F)F)c1)C(=O)c1nc(-c2cc(Cl)c(O)c(Cl)c2)no1 [110a, 3-(3,5-dichloro-4-hydroxyphenyl)-N-(2-ethoxyethyl)-N-(3-(trifluoromethyl)benzyl)-1,2,4-oxadiazole-5-carboxamide]
IC50 [1]: 3.76 µM

SMILES: COCCOCCN(Cc1cccc(C(F)(F)F)c1)C(=O)c1nc(-c2cc(Cl)c(O)c(Cl)c2)no1 [111a, 3-(3,5-dichloro-4-hydroxyphenyl)-N-(2-(2-methoxyethoxy)ethyl)-N-(3-(trifluoromethyl)benzyl)-1,2,4-oxadiazole-5-carboxamide]
IC50 [1]: 6.14 µM

SMILES: COCCOCCOCCOCCN(Cc1ccc(Cl)c(Cl)c1)C(=O)c1ncn(-c2cc(Cl)c(O)c(Cl)c2)n1 [111i, 1-(3,5-dichloro-4-hydroxyphenyl)-N-(3,4-dichlorobenzyl)-N-(2,5,8,11-tetraoxatridecan-13-yl)-1H-1,2,4-triazole-3-carboxamide]
IC50 [2]: 9.17 µM

SMILES: O=C(NCc1cc(F)ccc1F)c1noc(-c2cc(Cl)c(O)c(Cl)c2)n1 [113a, 5-(3,5-dichloro-4-hydroxyphenyl)-N-(2,5-difluorobenzyl)-1,2,4-oxadiazole-3-carboxamide]
IC50 [1]: 15.7 µM

SMILES: COCCOCCOCCN(Cc1cccc(OC(F)(F)F)c1)C(=O)c1ncn(-c2cc(Cl)c(O)c(Cl)c2)n1 [113i, 1-(3,5-dichloro-4-hydroxyphenyl)-N-(2-(2-(2-methoxyethoxy)ethoxy)ethyl)-N-(3-(trifluoromethoxy)benzyl)-1H-1,2,4-triazole-3-carboxamide]
IC50 [2]: 23.5 µM

SMILES: O=C(NCc1ccc(F)cc1F)c1noc(-c2cc(Cl)c(O)c(Cl)c2)n1 [114a, 5-(3,5-dichloro-4-hydroxyphenyl)-N-(2,4-difluorobenzyl)-1,2,4-oxadiazole-3-carboxamide]
IC50 [1]: 7.9 µM

SMILES: O=C(NCc1ccc(F)cc1)c1noc(-c2cc(Cl)c(O)c(Cl)c2)n1 [115a, 5-(3,5-dichloro-4-hydroxyphenyl)-N-(4-fluorobenzyl)-1,2,4-oxadiazole-3-carboxamide]
IC50 [1]: 11.8 µM

SMILES: COCCOCCOCCOCCN(Cc1cccc(OC(F)(F)F)c1)C(=O)c1ncn(-c2cc(Cl)c(O)c(Cl)c2)n1 [115i, 1-(3,5-dichloro-4-hydroxyphenyl)-N-(2,5,8,11-tetraoxatridecan-13-yl)-N-(3-(trifluoromethoxy)benzyl)-1H-1,2,4-triazole-3-carboxamide]
IC50 [2]: 2.8 µM

More lines, now with the values ahead:

IC50 [1]: 18 µM
SMILES: O=C(NCc1cccc(F)c1)c1noc(-c2cc(Cl)c(O)c(Cl)c2)n1 [116a, 5-(3,5-dichloro-4-hydroxyphenyl)-N-(3-fluorobenzyl)-1,2,4-oxadiazole-3-carboxamide]

IC50 [2]: 2.8 µM
SMILES: CC(C)(C)c1ccc(CN(CCOCCOCCOCCOCCOCCOCc2ccccc2)C(=O)c2ncn(-c3cc(Cl)c(O)c(Cl)c3)n2)cc1 [116i, N-(4-tert-butylbenzyl)-1-(3,5-dichloro-4-hydroxyphenyl)-N-(1-phenyl-2,5,8,11,14,17-hexaoxanonadecan-19-yl)-1H-1,2,4-triazole-3-carboxamide]

IC50 [1]: 19.9 µM
SMILES: CN(Cc1ccc(F)c(F)c1)C(=O)c1noc(-c2cc(Cl)c(O)c(Cl)c2)n1 [117a, 5-(3,5-dichloro-4-hydroxyphenyl)-N-(3,4-difluorobenzyl)-N-methyl-1,2,4-oxadiazole-3-carboxamide]

IC50 [2]: 21.4 µM
SMILES: COCCOCCOCCOCCOCCOCCOCCOCCN(Cc1ccc(C(C)(C)C)cc1)C(=O)c1ncn(-c2cc(Cl)c(O)c(Cl)c2)n1 [117i, N-(4-tert-butylbenzyl)-1-(3,5-dichloro-4-hydroxyphenyl)-N-(2,5,8,11,14,17,20,23-octaoxapentacosan-25-yl)-1H-1,2,4-triazole-3-carboxamide]

IC50 [1]: 5.67 µM
SMILES: O=C(NCc1cc(F)c(F)c(F)c1)c1noc(-c2cc(Cl)c(O)c(Cl)c2)n1 [118a, 5-(3,5-dichloro-4-hydroxyphenyl)-N-(3,4,5-trifluorobenzyl)-1,2,4-oxadiazole-3-carboxamide]

IC50 [2]: 17.3 µM
SMILES: COCCOCCOCCOCCOCCN(Cc1ccc(C(C)(C)C)cc1)C(=O)c1ncn(-c2cc(Cl)c(O)c(Cl)c2)n1 [118i, N-(4-tert-butylbenzyl)-1-(3,5-dichloro-4-hydroxyphenyl)-N-(2,5,8,11,14-pentaoxahexadecan-16-yl)-1H-1,2,4-triazole-3-carboxamide]

IC50 [1]: 24.1 µM
SMILES: O=C(c1noc(-c2cc(Cl)c(O)c(Cl)c2)n1)N(CCNCc1ccccc1)Cc1ccccc1 [119a, N-benzyl-N-(2-(benzylamino)ethyl)-5-(3,5-dichloro-4-hydroxyphenyl)-1,2,4-oxadiazole-3-carboxamide]

IC50 [2]: 5.9 µM
SMILES: COCCOCCOCCOCCN(Cc1ccc(C(C)(C)C)cc1)C(=O)c1ncn(-c2cc(Cl)c(O)c(Cl)c2)n1 [120i, N-(4-tert-butylbenzyl)-1-(3,5-dichloro-4-hydroxyphenyl)-N-(2,5,8,11-tetraoxatridecan-13-yl)-1H-1,2,4-triazole-3-carboxamide]

IC50 [1]: 19.2 µM
SMILES: O=C(c1nc(-c2cc(Cl)c(O)c(Cl)c2)no1)N(CCO)Cc1ccccc1 [121a, N-benzyl-3-(3,5-dichloro-4-hydroxyphenyl)-N-(2-hydroxyethyl)-1,2,4-oxadiazole-5-carboxamide]

IC50 [2]: 12.5 µM
SMILES: COCCOCCOCCOCCOCCOCCOCCOCCON(Cc1ccc(Oc2ccccc2)cc1)C(=O)c1ncn(-c2cc(Cl)c(O)c(Cl)c2)n1 [121i, N-(2,5,8,11,14,17,20,23-octaoxapentacosan-25-yloxy)-1-(3,5-dichloro-4-hydroxyphenyl)-N-(4-phenoxybenzyl)-1H-1,2,4-triazole-3-carboxamide]

IC50 [1]: 19.8 µM
SMILES: O=C(c1nc(-c2cc(Br)c(O)c(Br)c2)no1)N(CCO)Cc1ccccc1 [122a, N-benzyl-3-(3,5-dibromo-4-hydroxyphenyl)-N-(2-hydroxyethyl)-1,2,4-oxadiazole-5-carboxamide]

IC50 [2]: 5.11 µM
SMILES: COCCOCCOCCOCCON(Cc1ccc(Oc2ccccc2)cc1)C(=O)c1ncn(-c2cc(Cl)c(O)c(Cl)c2)n1 [122i, N-(2,5,8,11-tetraoxatridecan-13-yloxy)-1-(3,5-dichloro-4-hydroxyphenyl)-N-(4-phenoxybenzyl)-1H-1,2,4-triazole-3-carboxamide]

IC50 [1]: 16.4 µM
SMILES: O=C(NCc1ccc(Cl)c(F)c1)c1nc(-c2cc(Cl)c(O)c(Cl)c2)no1 [123a, N-(4-chloro-3-fluorobenzyl)-3-(3,5-dichloro-4-hydroxyphenyl)-1,2,4-oxadiazole-5-carboxamide]
